# According to ChEMBL document CHEMBL5126555, “Targeting breast cancer resistance protein (BCRP/ABCG2): Functional inhibitors and expression modulators” (Eur J Med Chem, 2022):
# Numbered stars: 1 amine (or outer) side, 2 acyl side, 3 side chain; on linkers, the order of the positions; unused ones are H or OH. Bridge positions count the residues as written; N and C are the ends. Square brackets hold non-standard residues; d marks the D form. Peptide text beside a SMILES is read from it. * marks the point of attachment. hTyr(3S-OH,4S-OH,3'-OSO3H) = N[C@H](C(=O)O)[C@H](O)[C@@H](O)c1ccc(O)c(OS(=O)(=O)O)c1; Orn(4R-OH,5R-OH) = O=C([C@H](C[C@@H](O)[C@@H](O)N[*:3])N[*:1])[*:2]; Pro(3S-OH,4S-Me) = C[C@H]1CN[C@H](C(=O)O)[C@H]1O; X1 = CCCCCOc1ccc(-c2cc(-c3ccc(C(=O)*)cc3)no2)cc1; Gln(3R-OH) = NC(=O)C[C@@H](O)[C@H](N)C(=O)O; Hyp = O=C(O)[C@@H]1C[C@@H](O)CN1
# Assays:
# [1] = molecular target: T1, Broad substrate specificity ATP-binding cassette transporter ABCG2 (Homo sapiens, UniProt Q9UNQ0); test: Inhibition of ABCG2 (unknown origin) expressed in human HEK293 cells membrane vesicles assessed inhibition of BCRP- mediated transport of 3[H]-E1S for 1 mins using [3H]-estrone sulfate as substrate by liquid scintillation counter analysis; format: cell membranes, Membrane vesicle
# T1 sequence (Q9UNQ0 whole entry): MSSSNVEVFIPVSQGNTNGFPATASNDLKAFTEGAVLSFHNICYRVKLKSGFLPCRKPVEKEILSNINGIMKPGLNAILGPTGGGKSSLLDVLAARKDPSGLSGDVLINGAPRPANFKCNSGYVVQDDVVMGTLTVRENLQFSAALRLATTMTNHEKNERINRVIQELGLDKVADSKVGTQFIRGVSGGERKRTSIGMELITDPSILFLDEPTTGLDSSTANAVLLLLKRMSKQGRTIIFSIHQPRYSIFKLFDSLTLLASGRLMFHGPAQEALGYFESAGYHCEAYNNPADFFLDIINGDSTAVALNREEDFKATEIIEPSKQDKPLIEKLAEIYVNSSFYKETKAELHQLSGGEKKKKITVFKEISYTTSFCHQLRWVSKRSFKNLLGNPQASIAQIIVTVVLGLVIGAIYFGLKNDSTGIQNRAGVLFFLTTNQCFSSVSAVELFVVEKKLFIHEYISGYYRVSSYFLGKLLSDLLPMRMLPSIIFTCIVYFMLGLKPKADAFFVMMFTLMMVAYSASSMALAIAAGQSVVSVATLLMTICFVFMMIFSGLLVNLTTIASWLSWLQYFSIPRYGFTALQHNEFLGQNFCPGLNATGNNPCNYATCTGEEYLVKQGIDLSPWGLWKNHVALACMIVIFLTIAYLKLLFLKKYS
# [2] = molecular target: T1, Broad substrate specificity ATP-binding cassette transporter ABCG2; test: Inhibition of human ABCG2 expressed in human HEK293 cells membrane vesicles mediated transport of 3[H]-MTX for 2 mins using [3H]-methotrexate as substrate by rapid filtration technique; format: cell membranes, Membrane vesicle
# [3] = molecular target: T1, Broad substrate specificity ATP-binding cassette transporter ABCG2; test: Inhibition of human ABCG2 expressed in dog MDCK-II-BCRP cells mediated pheophorbide A efflux preincubated with PhA followed by compound addition and measured after 60 mins by flow cytometry; format: cell-based
# [4] = molecular target: T1, Broad substrate specificity ATP-binding cassette transporter ABCG2; test: Inhibition of human ABCG2 expressed in human SAOS-2 cells mediated mitoxantrone efflux using mitoxantrone as substrate by flow cytometry; format: cell-based
# [5] = molecular target: T1, Broad substrate specificity ATP-binding cassette transporter ABCG2; test: Inhibition of ABCG2 (unknown origin) expressed in human HEK293 cells assessed as reversal of BCRP-mediated mitoxantrone resistance and measured after 90 mins by FACSflow cytometry analysis; format: cell-based
# [6] = molecular target: T1, Broad substrate specificity ATP-binding cassette transporter ABCG2; test: Inhibition of human ABCG2 expressed in human HEK293 cells mediated pheophorbide A efflux assessed as intracellular pheophorbide A accumulation for 45 mins by FACSort flow cytometry; format: cell-based
# [7] = molecular target: T1, Broad substrate specificity ATP-binding cassette transporter ABCG2; test: Inhibition of ABCG2 (unknown origin) expressed in human MCF7/MX cells mediated mitoxantrone efflux assessed as intracellular mitoxantrone level and measured after 30 mins by FACSflow cytometry analysis; format: cell-based
# [8] = molecular target: T1, Broad substrate specificity ATP-binding cassette transporter ABCG2; test: Inhibition of human ABCG2 expressed in dog MDCK-II-BCRP cells mediated pheophorbide A efflux by flow cytometry; format: cell-based
# [9] = molecular target: T1, Broad substrate specificity ATP-binding cassette transporter ABCG2; test: Inhibition of ABCG2 (unknown origin) expressed in human HEK293 cells mediated pheophorbide A efflux and measured after 90 mins by FACSflow cytometry; format: cell-based
# [10] = molecular target: T1, Broad substrate specificity ATP-binding cassette transporter ABCG2; test: Inhibition of ABCG2 (unknown origin) expressed in human HEK293 cells membrane vesicles assessed inhibition of BCRP- mediated transport of 3[H]-E1S for 1 mins using [3H]-estrone sulfate as substrate by rapid filtration technique; format: cell membranes, Membrane vesicle
# [11] = molecular target: T1, Broad substrate specificity ATP-binding cassette transporter ABCG2; test: Inhibition of ABCG2 (unknown origin) expressed in human HEK cells membrane vesicle assessed as inhibition of BCRP- mediated transport of [3H]-E3S using [3H]-oestrone 3-sulfate as radiolabeled substrate by liquid scintillation counter analysis; format: cell membranes
# [12] = molecular target: T1, Broad substrate specificity ATP-binding cassette transporter ABCG2; test: Inhibition of human ABCG2 expressed in human HEK293 cells mediated pheophorbide A efflux and measured after 90 mins by FACSflow cytometry
smiles,measurement,setting,value
C[C@@H](c1nc(-c2ccc(C#N)cc2)cs1)[C@](O)(Cn1cncn1)c1cc(F)ccc1F [ISAVUCONAZOLE],IC50,[1],11 µM
CCC(C)n1ncn(-c2ccc(N3CCN(c4ccc(OCC5COC(Cn6cncn6)(c6ccc(Cl)cc6Cl)O5)cc4)CC3)cc2)c1=O (configuration not stated) [ITRACONAZOLE],IC50,[1],2 µM
Cc1c(OCC(F)(F)F)ccnc1C[S+]([O-])c1nc2ccccc2[nH]1 (configuration not stated) [LANSOPRAZOLE],IC50,[2],14.4 µM
Cc1cccc(C)c1OCC(=O)N[C@@H](Cc1ccccc1)[C@@H](O)C[C@H](Cc1ccccc1)NC(=O)[C@H](C(C)C)N1CCCNC1=O [LOPINAVIR],IC50,[3],7.6 µM
"CCCCCOc1ccc(-c2cc(-c3ccc(C(=O)N[C@H]4C[C@@H](O)[C@@H](O)NC(=O)[C@@H]5[C@@H](O)[C@@H](C)CN5C(=O)[C@H]([C@H](O)CC(N)=O)NC(=O)[C@H]([C@H](O)[C@@H](O)c5ccc(O)c(OS(=O)(=O)O)c5)NC(=O)[C@@H]5C[C@@H](O)CN5C(=O)[C@H]([C@@H](C)O)NC4=O)cc3)no2)cc1 [MICAFUNGIN] (X1-[Orn(4R-OH,5R-OH)]T[Hyp][hTyr(3S-OH,4S-OH,3'-OSO3H)][Gln(3R-OH)][Pro(3S-OH,4S-Me)]; lactam 1-C)",IC50,[1],21 µM
CN(C)C(=O)CCSC(SCCC(=O)O)c1cccc(/C=C/c2ccc3ccc(Cl)cc3n2)c1 (configuration not stated) [MK-571],IC50,[4],50 µM
COC(=O)C1=C(C)NC(C)=C(C(=O)OCCN(C)Cc2ccccc2)C1c1cccc([N+](=O)[O-])c1 (configuration not stated) [NICARDIPINE],IC50,[5],4.8 µM
COC(=O)C1=C(C)NC(C)=C(C(=O)OC)C1c1ccccc1[N+](=O)[O-] [NIFEDIPINE],IC50,[6],50.5 µM
COCCOC(=O)C1=C(C)NC(C)=C(C(=O)OC(C)C)C1c1cccc([N+](=O)[O-])c1 (configuration not stated) [NIMODIPINE],IC50,[5],13.7 µM
CCOC(=O)C1=C(C)NC(C)=C(C(=O)OC)C1c1cccc([N+](=O)[O-])c1 (configuration not stated) [NITRENDIPINE],IC50,[7],21.1 µM
COc1ccc2[nH]c([S+]([O-])Cc3ncc(C)c(OC)c3C)nc2c1 (configuration not stated) [OMEPRAZOLE],IC50,[2],17.6 µM
COc1ccnc(C[S+]([O-])c2nc3ccc(OC(F)F)cc3[nH]2)c1OC (configuration not stated) [PANTOPRAZOLE],IC50,[2],5.5 µM
CC[C@@H]([C@H](C)O)n1ncn(-c2ccc(N3CCN(c4ccc(OC[C@@H]5CO[C@@](Cn6cncn6)(c6ccc(F)cc6F)C5)cc4)CC3)cc2)c1=O [POSACONAZOLE],IC50,[1],6 µM
COCCCOc1ccnc(C[S+]([O-])c2nc3ccccc3[nH]2)c1C (configuration not stated) [RABEPRAZOLE],IC50,[2],8.5 µM
Cc1cc(/C=C/C#N)cc(C)c1Nc1ccnc(Nc2ccc(C#N)cc2)n1 [RILPIVIRINE],IC50,[8],1.5 µM
CO[C@H]1C[C@@H]2CC[C@@H](C)[C@@](O)(O2)C(=O)C(=O)N2CCCC[C@H]2C(=O)O[C@H]([C@H](C)C[C@@H]2CC[C@@H](O)[C@H](OC)C2)CC(=O)[C@H](C)/C=C(\C)[C@@H](O)[C@@H](OC)C(=O)[C@H](C)C[C@H](C)/C=C/C=C/C=C/1C [SIROLIMUS],IC50,[9],1.9 µM
CC(C)=CCC/C(C)=C/CNCCNC1C2CC3CC(C2)CC1C3 (configuration not stated) [SQ109],IC50,[10],5.5 µM
O=C(O)c1cc(/N=N/c2ccc(S(=O)(=O)Nc3ccccn3)cc2)ccc1O [SULFASALAZINE],IC50,[11],0.46 µM
C=CC[C@@H]1/C=C(\C)C[C@H](C)C[C@H](OC)[C@H]2O[C@@](O)(C(=O)C(=O)N3CCCC[C@H]3C(=O)O[C@H](/C(C)=C/[C@@H]3CC[C@@H](O)[C@H](OC)C3)[C@H](C)[C@@H](O)CC1=O)[C@H](C)C[C@@H]2OC [TACROLIMUS ANHYDROUS],IC50,[9],3.3 µM
COc1cc(O)c2c(=O)cc(-c3ccccc3)oc2c1 [TECHTOCHRYSIN],IC50,[12],3 µM
CSc1ccc2c(c1)N(CCC1CCCCN1C)c1ccccc1S2 (configuration not stated) [THIORIDAZINE],IC50,[10],6.6 µM
COc1cc(C(=O)C(=O)N(C)[C@@H](Cc2ccc(Cl)cc2)C(=O)N(Cc2ccccc2)C(CCc2ccncc2)CCc2ccncc2)cc(OC)c1OC [TIMCODAR],IC50,[10],> 100 µM
